The source of these data is patent US6699686B1, “Modified nuclear glucocorticoid receptor, fusion protein, and DNA fragments coding for said receptor and said fusion protein” (Association pour le Development de la Recherche en …, priority 1996, dated 2004).

pEC50: −log10 of the molar value.

Test [1] has as its target T1, Cre-LBD[GR(I747/T)] (Homo sapiens, UniProt P04150, I747T).
T1 construct: the region containing the mutated LBD of HG1 [aa 500-777]; Cre recombinase aa 1-343 (bacteriophage P1); F region of the human estrogen receptor (aa 553-595); expressed in transfected cells
T1 sequence (P04150 500-777 I747T): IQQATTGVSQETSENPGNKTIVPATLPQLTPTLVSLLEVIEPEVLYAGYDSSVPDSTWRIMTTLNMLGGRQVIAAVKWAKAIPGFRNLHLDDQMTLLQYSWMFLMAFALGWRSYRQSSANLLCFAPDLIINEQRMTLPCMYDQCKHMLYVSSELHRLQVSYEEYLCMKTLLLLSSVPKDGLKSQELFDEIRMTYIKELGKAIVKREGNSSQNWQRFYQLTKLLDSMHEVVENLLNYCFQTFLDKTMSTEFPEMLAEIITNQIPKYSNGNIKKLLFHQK
Nature of the test: PCR test of recombinase activity in HeLa cells cotransfected with pCre-LBD[GR(I747/T)] and pRXRα(LNL). It is filed as cell-based. The note with it: ligand 10^−7 M, 72 hours. On the procedure:
[optionally cotransfected with 5 μg of the vector pRXRα^(LNL) for the HeLa cells] with the aid of an electroporator (Bio-Rad gene pulser), set at 200 V and 960 μF. The cells were then inoculated at 10^6 cells per 100 mm dish and treated, if necessary, with ligands.
The products of the reaction were separated on acrylamide gel and stained with ethidium bromide. Lane 1 corresponds to the loading of the 1 kb ladder size marker (GibcoBRL).

The target of test [2] is T2, wild-type hGR (Homo sapiens, UniProt P04150).
T2 construct: expressed in transfected cells
T2 sequence (P04150 1-777): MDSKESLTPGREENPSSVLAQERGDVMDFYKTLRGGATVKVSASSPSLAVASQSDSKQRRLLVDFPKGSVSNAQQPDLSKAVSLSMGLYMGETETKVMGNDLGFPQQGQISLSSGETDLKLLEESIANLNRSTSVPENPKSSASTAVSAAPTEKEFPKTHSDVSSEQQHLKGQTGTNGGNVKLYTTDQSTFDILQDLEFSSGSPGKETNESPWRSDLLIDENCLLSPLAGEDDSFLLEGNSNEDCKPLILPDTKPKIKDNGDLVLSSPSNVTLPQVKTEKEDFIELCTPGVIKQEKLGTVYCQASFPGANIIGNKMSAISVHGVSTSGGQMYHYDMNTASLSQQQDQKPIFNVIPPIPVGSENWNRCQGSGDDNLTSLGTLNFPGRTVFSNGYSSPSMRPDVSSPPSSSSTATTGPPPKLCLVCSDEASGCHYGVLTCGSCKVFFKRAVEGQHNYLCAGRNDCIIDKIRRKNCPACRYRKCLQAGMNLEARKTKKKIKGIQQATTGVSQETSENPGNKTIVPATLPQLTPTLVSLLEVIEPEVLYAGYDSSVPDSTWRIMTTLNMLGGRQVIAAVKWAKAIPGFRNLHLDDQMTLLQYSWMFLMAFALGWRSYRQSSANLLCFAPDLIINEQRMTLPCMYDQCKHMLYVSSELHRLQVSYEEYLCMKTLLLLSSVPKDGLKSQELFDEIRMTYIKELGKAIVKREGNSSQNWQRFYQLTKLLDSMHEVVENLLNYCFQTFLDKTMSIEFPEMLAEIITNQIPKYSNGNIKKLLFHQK
Nature of the test: Transcriptional activation of pTAT-tk-Luc luciferase reporter in transiently transfected CV-1 cells. It is filed as cell-based. Details: Luciferase activity % Wild type: concentration or dose not given beside the values. Conditions: for Luciferase activity % Wild type: 24 h ligand, mean of three independent assays; for pEC50: ligand concentration giving 50% of maximum transcriptional response. As for the experimental part: The receptors were transiently expressed in GR-free CV-1 cells, conjointly with a luciferase reporter gene under the control of the tyrosine aminotransferase promoter (pTAT-tk-Luc).
After transfection, the cells were incubated for 24 hours with increasing concentrations of Dex, and they were then subjected to an assay of the β-galactosidase and luciferase activities, as described in “Materials and Methods”. The luciferase activity was normalized with the β-galactosidase activity, and the value obtained in the absence of ligand was subtracted for each point. The results were expressed as a percentage of the maximum luciferase activity obtained for each receptor. Each point is the mean±standard deviation of the mean of four separate determinations carried out in duplicate. […] The [^3H] steroid attached was measured after treatment with dextran-coated charcoal. The results presented are those for a single assay carried out in duplicate and representative of three separate assays.
Co-transfections were carried out and dose-response curves were constructed as described in FIG. 2. […] The assays of luciferase and β-galactosidase activity were carried out as described in “Materials and Methods”. The mean values of three independent assays are given in this table. nm=not measurable.
The CV-1 and Cos-7 cells were cultured in Dulbeco's modified Eagle's medium (DMEM) containing 10% (v/v) of fetal calf serum (FCS) (Gibco, Grand Island, N.Y.), in a humidified atmosphere containing 5% CO2. The HeLa cells were cultured under the same conditions. Transient transfections were carried out in 6-well multiplates according to the calcium phosphate procedure already described (42). A reference recombinant plasmid, pCMV-βgal, expressing bacterial β-galactosidase, was transfected conjointly with the receptor expression vector and the corresponding reporter gene so as to correct possible variations in he transfection efficiency. The precipitate was removed by washing after 24 hours, and the cells were kept in DMEX without FCS but containing hormone. After another 24 hours, the cells were rinsed and lysed for 15 minutes with 0.3 ml of lysis buffer [25 mM Tris.phosphate, pH 7.8, 8 mM […], 1% Triton X100, 10% glycerol (48)]. The corresponding luciferase activity as determined on an aliquot fraction (0.1 ml), by evaluation of the luminescence peak (for an integration time of 15 seconds), after injection of 0.1 ml of 1 mM luciferin in an LKB luminometer. The β-galactosidase was determined by the method modified by Bocquel et al. (49), for controlling the efficiency of each transfection.
The reporter gene pTAT-tk-Luc was provided by D. Gagne and was constructed as follows: an intermediate plasmid pTAT was first generated by insertion of the 966 bp EcoRI-BamHI segment obtained from pKT531 [offered freely by T. Grande (50)] into the corresponding sites of the vector pUC19 (Pharmacia). The fragment containing the sequence coding for the firefly luciferase and the thymidine kinase (tk) minimal promoter obtained from the Herpes simplex virus was isolated in the form of a BamHI fragment from pvit-tk-Luc (51) and inserted, downstream of the TAT promoter, into the corresponding site of pTAT. The reporter plasmid pGRE-tk-Luc was constructed by ligation of the fragment of HindIII-BglII digestion of pGRE-tk-CAT (52), which contains a synthetic GRE (AGAACAcagTGTTCT) upstream of the tk minimal promoter, into the HindIII-BglII sites of pLuc (53). The reporter gene p(17M)5-βGlob-Luc has been previously described (54). The reporter plasmid p(17M)5-tata-Luc was constructed from the plasmid p(17M)5-tata-CAT (55) by digestion with XhoI-BamHI and isolation of the fragment containing (17M5)-tata. This fragment was then inserted into the vector pGL2 (Promega) digested with the same restriction enzymes.

On to `C[C@]12C[C@H](O)[C@H]3[C@@H](CCC4=CC(=O)CC[C@@]43C)[C@@H]1CC[C@@H]2C(=O)CO` [Corticosterone, corticosterone], for which, in test [1], the “recombinase activity (PCR band of recombinant fragment)” value (“recombinase activity” below) is given as “only the fragment corresponding to the wild-type allele can be detected”. Besides, in test [2], the “stimulation of the luciferase reporter with the wild-type GR” value (from here on “stimulation of the luciferase reporter”) is “as effective as Dex”; the “Luciferase activity % Wild type” value amounted to 100%; the negative logarithm of the EC50 (pEC50) – broadly, −log10 of the EC50, conventionally taken in molar units – was 7.15.

For the compound `C[C@]12CCC(=O)C=C1CC[C@@H]1[C@@H]2[C@@H](O)C[C@]2(C=O)[C@@H](C(=O)CO)CC[C@@H]12` [Aldosterone, aldosterone], in test [1], the “recombinase activity” value is listed as “only the fragment corresponding to the wild-type allele can be detected”. Besides, in test [2], the “stimulation of the luciferase reporter” value was “as effective as Dex”, the “Luciferase activity % Wild type” value is on record as 90% and the pEC50 is 7.30.

Turning to `C[C@]12CCC(=O)C=C1CC[C@@H]1[C@@H]2[C@@H](O)C[C@@]2(C)[C@H]1CC[C@]2(O)C(=O)CO` [Cortisol, cortisol], the “recombinase activity” value in test [1] is given as “only the fragment corresponding to the wild-type allele can be detected”. For the same compound, in test [2], the “stimulation of the luciferase reporter” value is listed as “as effective as Dex” and the “Luciferase activity % Wild type” value amounted to 110%.

As for `C[C@@H]1C[C@H]2[C@@H]3CCC4=CC(=O)C=C[C@]4(C)[C@@]3(F)[C@@H](O)C[C@]2(C)[C@@]1(O)C(=O)CO` [Dexamethasone, dexamethasone], the “Luciferase activity % Wild type” value in test [2] came to 100%.
